The values below come from patent EP3057949B1, “SECONDARY ALCOHOL QUINOLINYL MODULATORS OF ROR GAMMA T” (Janssen Pharmaceutica NV, priority 2013, dated 2015).

Test [1] addresses T1, full-length human RORγt (Homo sapiens, UniProt P51449).
T1 construct: expressed in transfected cells; host or cells: HEK293T
T1 sequence (P51449 1-497 isoform P51449-2): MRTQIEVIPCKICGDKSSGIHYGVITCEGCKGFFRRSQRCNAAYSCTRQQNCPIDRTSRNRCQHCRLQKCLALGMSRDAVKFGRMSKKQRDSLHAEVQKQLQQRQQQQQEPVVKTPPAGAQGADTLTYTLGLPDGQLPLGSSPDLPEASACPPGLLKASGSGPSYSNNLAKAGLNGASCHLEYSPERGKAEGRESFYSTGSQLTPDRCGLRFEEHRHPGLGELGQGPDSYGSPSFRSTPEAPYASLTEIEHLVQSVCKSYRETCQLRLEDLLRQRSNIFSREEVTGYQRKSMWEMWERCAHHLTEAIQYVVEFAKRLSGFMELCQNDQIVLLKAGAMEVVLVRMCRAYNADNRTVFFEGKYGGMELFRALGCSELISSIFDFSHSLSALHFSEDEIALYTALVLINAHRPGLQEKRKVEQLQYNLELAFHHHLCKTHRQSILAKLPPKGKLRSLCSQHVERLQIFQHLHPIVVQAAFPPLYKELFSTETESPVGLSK
The experiment in a line: RORγt (full-length human) Reporter Assay (GAL4 luciferase, HEK293T cells). Format: cell-based. The conditions noted are these: for IC50: overnight (16 to 20 hours) incubation, read-out: RORγt (FL) Reporter Assay, IC50. On the procedure:
Compounds were assessed for RORgt functional modulation using either the RORgt ligand binding domain (LBD) reporter assay, or the RORgt full-length (FL) reporter assay.
A reporter assay was used to test functional activity of RORγt modulatory compounds on transcriptional activation driven by full-length human RORγt. Cells used in this assay were transiently co-transfected with three different plasmids, one expressing the GAL4-DNA binding domain (DBD)-RORγt fusion protein under control of a CMV promoter (NH2-Gal4-DBD:RORC-COOH in pCMV-BD, Stratagene #211342), and two reporter plasmids - the firefly luciferase reporter under control of a GAL4 promoter (pFR-Luc 2x GAL4) and Renilla luciferase reporter under control of CMV promoter (pRL-CMV, Promega #E2261). The full-length coding sequence was used for human RORγt, i.e., nucleotides 142-1635 of human RORγt, transcript variant 2, NCBI Accession: NM_001001523.1 (SEQ ID NO:1). HEK293T cells were plated at 35000 per well in 96-well plate in medium of MEM with 8.6% FBS. After 18-22 hours incubation, the transfection was carried out by using a PEI solution with 170.5 ng total DNA/well (50 ng pCMV-BD-ROR plus 20 ng of pFR-Luc reporter and 0.5 ng of pRL-CMV reporter plus 100 ng Carrier DNA (Clontech # 630440) for each well). 4-6 hours after transfection, cells were treated with compounds for overnight in the medium with final concentration of FBS 1.1% and DMSO 0.1%. After overnight (16 to 20 hours) incubation, media were removed and cells were lysed with 20 µL 1x Passive Lysis Buffer (Promega) for 10-15 minutes. Luminescence was measured using a BMG LUMIstar OPTIMA plate reader, after addition of 75 µL/well firefly luciferase buffer, followed by 75 µL/well Renilla luciferase buffer. To calculate the effect of compounds on RORγt activity, firefly values were normalized against values of DMSO only and values of reference compound at saturating concentration, then further normalized against Renilla signals. IC50s were generated by plotting final Renilla normalized data against compound concentration and percent inhibition was calculated against DMSO control.
(Reporter assays use an easily measured gene product as a stand-in for the process of interest.)

Test [2] deals with IL-17 production by CD4 T cells. Description: Human Th17 Assay (IL-17 production by CD4 T cells). The conditions noted are these: IL-17 in supernatant after 3 days, Th17 differentiation conditions. Format: cell-based. The text has this: The human Thl7 assay tests the effect of RORyt modulatory compounds on IL-17 production by CD4 T cells under conditions which favor Th17 differentiation.
Total CD4^+ T cells were isolated from the peripheral blood mononuclear cells (PBMC) of healthy donors using a CD4^+ T cell isolation kit II, following the manufacturer's instructions (Miltenyi Biotec). Cells were resuspended in a medium of RPMI-1640 supplemented with 10% fetal bovine serum, penicillin, streptomycin, […], and β-mercaptoethanol and were added to 96-well plates at 1.5x10^5 per 100 µL per well. 50 µL of compound at titrated concentrations in DMSO were added into each well at final DMSO concentration at 0.2%. Cells were incubated for 1 hour, then 50 µL of Th17 cell differentiation medium was added to each well. The final concentrations of antibodies and cytokines (R&D Systems) in differentiation medium were: 3x10^6/mL anti-CD3/CD28 beads (prepared using human T cell activation/expansion kit, Miltenyi Biotec), 10 µg/mL anti-IL4, 10 µg/mL anti-IFNγ, 10 ng/mL IL1β, 10 ng/mL IL23, 50 ng/mL IL6, 3 ng/mL TGFβ and 20 U/mL IL2. Cells were cultured at 37 °C and 5% CO2 for 3 days. Supernatants were collected and the accumulated IL-17 in culture was measured by using MULTI-SPOT® Cytokine Plate following manufacture's instruction (Meso Scale Discovery). The plate was read using Sector Imager 6000, and IL-17 concentration was extrapolated from the standard curve. The IC50s were determined by GraphPad.

By inhibition is commonly meant the change of the read-out against control, counted positive when it falls. Usually IC50 stands for the concentration needed to halve the response being measured. With `COc1nc2ccc(C(O)c3cnc(C)n3C)cc2c(Cl)c1Cc1ccc(C(F)(F)F)cc1` (single isomer, unassigned) [Example 15c, (4-Chloro-2-methoxy-3-(4-(trifluoromethyl)benzyl)quinolin-6-yl)(1,2-dimethyl-1H-imidazol-5-yl)methanol], the inhibition at 2 µM in test [1] (HEK-293T, 2 µM compound, read-out: RORγt (FL) Reporter Assay, % inhibition @ 2 µM) was 96%. Further, the IC50 in test [1] came out at 58 nM; in test [2], 130 nM.

On to `COc1nc2ccc(C(O)c3cnc(C)n3C)cc2c(Cl)c1Cc1ccc(C(F)(F)F)cc1` (single isomer, unassigned) [Example 15b, (4-Chloro-2-methoxy-3-(4-(trifluoromethyl)benzyl)quinolin-6-yl)(1,2-dimethyl-1H-imidazol-5-yl)methanol], for which, in test [1] (HEK-293T, 0.67 µM compound concentration (footnote *), read-out: RORγt (FL) Reporter Assay, % inhibition (values marked *)), the inhibition at 0.67 µM was found to be 85%. The half-inhibitory concentration (IC50) in test [1] turned out to be 91 nM; in test [2] (Homo sapiens, CD4+ T, 72 h) it was 120 nM.
